In data set [1] the test system is Chikungunya virus. The data set can be described thus: Antiviral activity against CHIKV 181/25 expressing nLuc-capsid gene infected in human MRC5 cells assessed as reduction in viral replication preincubated with cells for 1 hr followed by viral infection measured after 6 hrs post-infection by Nano-glo luciferase assay. The following applies: 181/25, MRC5, read-out: pEC50 (converted). The class given is functional, organism-based.

A short description of data set [2]: Aqueous solubility of compound in PBS at pH 7.4. In kind it is physicochemical.
The test system of the next data set is MRC5. The data set can be described thus: Cytotoxicity against human MRC5 cells at 10 to 40 uM by Cell Titer Glo assay. The class given is toxicity, cell-based. Particulars: mrc5, 40 µM, dose 10-40 µM.
Another data set has as its target Polyprotein P1234 (Chikungunya virus (strain S27-African prototype) (CHIKV), UniProt Q8JUX6). The data set can be described thus: Inhibition of N-terminal 6-His/SUMO-tagged CHIKV 181/25 nsP2 extracted from Escherichia coli Rosetta 2 preincubated for 30 mins followed by ATP addition measured after 1 hr by ADP-Glo assay.
For data set [3], the system named is Chikungunya virus. The data set can be described thus: Inhibition of N-terminal 6-His/SUMO-tagged CHIKV 181/25 nsP2 extracted from Escherichia coli Rosetta 2 at 200 uM preincubated for 30 mins followed by ATP addition measured after 1 hr by ADP-Glo assay relative to control. The following applies: time 90.0 min. For orientation: In ADP-Glo the light output rises with the ADP produced.

Usually kinetic solubility stands for the concentration staying in solution when a stock, usually in DMSO, is diluted into the medium. One may read the IC50 as the concentration that gives 50% inhibition. Low readings indicate greater potency, high ones weaker potency. The inhibition is the change of the read-out against control, counted positive when it falls.

In brackets after ≈: the same amount, converted by molar mass. Activity calls are given as the source filed them. The rule behind the calls is not given here.

Polyprotein P1234, sequence (Q8JUX6 536-1333 limits assumed): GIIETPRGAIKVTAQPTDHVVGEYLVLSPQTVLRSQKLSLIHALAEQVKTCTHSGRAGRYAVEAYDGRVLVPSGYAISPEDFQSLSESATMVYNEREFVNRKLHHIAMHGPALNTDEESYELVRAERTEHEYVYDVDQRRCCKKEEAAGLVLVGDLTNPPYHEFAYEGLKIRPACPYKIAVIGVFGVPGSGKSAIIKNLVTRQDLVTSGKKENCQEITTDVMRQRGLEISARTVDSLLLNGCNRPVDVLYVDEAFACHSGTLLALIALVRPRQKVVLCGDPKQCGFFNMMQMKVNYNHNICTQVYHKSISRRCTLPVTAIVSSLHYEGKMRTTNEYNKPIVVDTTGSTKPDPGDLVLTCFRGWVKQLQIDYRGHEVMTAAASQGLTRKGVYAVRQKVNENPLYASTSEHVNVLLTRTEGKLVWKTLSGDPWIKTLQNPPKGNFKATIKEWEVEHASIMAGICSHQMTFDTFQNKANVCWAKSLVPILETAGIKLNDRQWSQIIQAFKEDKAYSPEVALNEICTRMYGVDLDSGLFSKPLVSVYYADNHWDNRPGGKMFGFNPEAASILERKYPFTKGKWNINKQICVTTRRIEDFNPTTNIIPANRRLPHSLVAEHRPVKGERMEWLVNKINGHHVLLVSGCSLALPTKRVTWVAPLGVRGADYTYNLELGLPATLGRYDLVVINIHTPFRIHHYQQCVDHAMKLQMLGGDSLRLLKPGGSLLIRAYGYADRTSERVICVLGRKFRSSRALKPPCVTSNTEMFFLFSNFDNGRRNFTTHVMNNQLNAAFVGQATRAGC

For `O=C(N1CCC2(CC1)CC(CN1CCCS1(=O)=O)CCO2)C1(c2ccccc2)CCCC1` (stereo not given), in the data set with Chikungunya virus [1], the EC50 is 0.398 µM. The compound further had a solubility (kinetic) in data set [2] greater than 220 µM. In addition, the Activity entry with MRC5 was “Non-toxic”. For the same compound, on Polyprotein P1234, the IC50 is 1.58 µM.

In the case of `CC(C)C(=O)NCC1CCOC2(CCN(C(=O)C3(c4ccccc4)CCCC3)CC2)C1` (stereo not given), in the data set on Chikungunya virus [3], the inhibition turned out to be 80%. Also, the EC50 in the data set with Chikungunya virus [1] is 3.98 µM. This compound displayed a kinetic solubility in data set [2] of 170 µM (≈ 72.5 µg/mL). In the data set with MRC5, the Activity result is “Non-toxic”. The same compound showed an IC50 at Polyprotein P1234 greater than 39.8 µM.

Take `COc1ccc(NC(=O)NCC2CCOC3(CCN(C(=O)C4(c5ccccc5)CCCC4)CC3)C2)cc1` (stereo not given): the EC50 in the data set on Chikungunya virus [1] is 3.98 µM. In data set [2], this compound displayed a kinetic solubility of 10 µM (≈ 5.06 µg/mL). Besides, the Activity result in the data set on MRC5 is recorded as “Non-toxic”. Besides, the IC50 on Polyprotein P1234 was 20 µM.

Consider `O=C(CCCCl)NCC1CCOC2(CCN(C(=O)C3(c4ccccc4)CCCC3)CC2)C1` (stereo not given), for which the EC50 with Chikungunya virus [1] is 0.316 µM. Besides, the solubility (kinetic) in data set [2] amounted to 170 µM (≈ 78.4 µg/mL). In addition, in the data set with MRC5, the Activity result was “Non-toxic”. The same compound gave an IC50 against Polyprotein P1234 of 2 µM.

`NC(=O)NCC1CCOC2(CCN(C(=O)C3(c4ccccc4)CCCC3)CC2)C1` (stereo not given) displayed an inhibition in the data set on Chikungunya virus [3] of 50%. For the same compound, the EC50 with Chikungunya virus [1] was 12.6 µM. The compound also registered a kinetic solubility in data set [2] of 190 µM (≈ 75.9 µg/mL). For the same compound, the Activity result in the data set with MRC5 is “Non-toxic”. At Polyprotein P1234, this compound showed an IC50 greater than 39.8 µM.

`CC(C)NC(=O)NCC1CCOC2(CCN(C(=O)C3(c4ccccc4)CCCC3)CC2)C1` (stereo not given) showed an inhibition in the data set with Chikungunya virus [3] of 50%. In addition, in the data set on Chikungunya virus [1], the EC50 was 15.8 µM. In data set [2], this compound came in with a solubility (kinetic) of 180 µM (≈ 79.5 µg/mL). Besides, in the data set on MRC5, the Activity result is on record as “Non-toxic”. Besides, on Polyprotein P1234, the IC50 is greater than 39.8 µM.

With `O=C(N1CCC2(CC1)CC(Oc1ccccn1)CCO2)C1(c2ccccc2)CCCC1` (stereo not given), in the data set on Chikungunya virus [3], the inhibition turned out to be 60%. For the same compound, in the data set with Chikungunya virus [1], the EC50 is 1.26 µM. Further, the kinetic solubility in data set [2] worked out at 20 µM (≈ 8.41 µg/mL). In the data set on MRC5, the Activity result is listed as “Non-toxic”. Also, on Polyprotein P1234, the IC50 was greater than 39.8 µM.

On to `O=C(NCC1CCOC2(CCN(C(=O)C3(c4ccccc4)CCCC3)CC2)C1)c1cccnc1` (stereo not given), for which the EC50 in the data set with Chikungunya virus [1] is 2.51 µM. Besides, the solubility (kinetic) in data set [2] was 90 µM (≈ 41.5 µg/mL). Further, the Activity result with MRC5 was “Non-toxic”. In addition, 12.6 µM corresponded to half-maximal inhibition against Polyprotein P1234 (IC50).

As for `Cc1ccnc(NC2CCOC3(CCN(C(=O)C4(c5ccccc5)CCCC4)CC3)C2)c1` (stereo not given), in the data set on Chikungunya virus [3], the inhibition was 70%. In addition, the EC50 with Chikungunya virus [1] was 6.31 µM. This compound registered a kinetic solubility in data set [2] of 70 µM (≈ 30.4 µg/mL). Further, the Activity entry in the data set with MRC5 is reported as “Non-toxic”. Moreover, the IC50 against Polyprotein P1234 was greater than 39.8 µM.

For `O=C(N1CCC2(CC1)CC(CN1CCCCS1(=O)=O)CCO2)C1(c2cc(F)cc(F)c2)CCCC1` (stereo not given), the EC50 with Chikungunya virus [1] was 0.1 µM. The same compound gave a kinetic solubility in data set [2] of 4 µM (≈ 2.04 µg/mL). For the same compound, the Activity result in the data set on MRC5 is reported as “Non-toxic”. Further, on Polyprotein P1234, inhibition was half-maximal at 0.398 µM (IC50).

`CN(C)S(=O)(=O)NCC1CCOC2(CCN(C(=O)C3(c4ccccc4F)CCCC3)CC2)C1` (stereo not given): the EC50 in the data set with Chikungunya virus [1] was 5.01 µM. For the same compound, the Activity entry in the data set with MRC5 was “Non-toxic”. The same compound showed a half-inhibitory concentration (IC50) against Polyprotein P1234 of 31.6 µM.

As for `CN(C)S(=O)(=O)NCC1CCOC2(CCN(C(=O)C3(c4ccccc4Cl)CCCC3)CC2)C1` (stereo not given), the EC50 in the data set on Chikungunya virus [1] was 1.26 µM. For the same compound, the Activity result in the data set with MRC5 is given as “Non-toxic”. The compound further gave an IC50 at Polyprotein P1234 of 7.94 µM.

As for `CCCCCCN(CC1CCOC2(CCN(C(=O)C3(c4ccccc4)CCCC3)CC2)C1)S(C)(=O)=O` (stereo not given), the EC50 in the data set on Chikungunya virus [1] is 1.58 µM. Also, the solubility (kinetic) in data set [2] was less than 1 µM. The Activity result with MRC5 is listed as “Non-toxic”. On Polyprotein P1234, this compound had a concentration for half-maximal inhibition (IC50) of 12.6 µM.

Consider `O=C(N1CCC2(CC1)CC(CNS(=O)(=O)C1CC1)CCO2)C1(c2ccccc2)CCCC1` (stereo not given), for which, in the data set on Chikungunya virus [1], the EC50 was 3.98 µM. Also, the solubility (kinetic) in data set [2] was found to be 180 µM (≈ 82.9 µg/mL). Moreover, the Activity entry in the data set with MRC5 is on record as “Non-toxic”. Besides, inhibition against Polyprotein P1234 was half-maximal at 20 µM (IC50).

As for `CS(=O)(=O)N(Cc1ccccc1)CC1CCOC2(CCN(C(=O)C3(c4ccccc4)CCCC3)CC2)C1` (stereo not given), the inhibition result with Chikungunya virus [3] was “inactive”. Moreover, the EC50 with Chikungunya virus [1] is 10 µM. The kinetic solubility in data set [2] is less than 1 µM. For the same compound, in the data set on MRC5, the Activity entry is on record as “Non-toxic”.

For the compound `O=C1CCC(=O)N1CC1CCOC2(CCN(C(=O)C3(c4ccccc4)CCCC3)CC2)C1` (stereo not given), the EC50 with Chikungunya virus [1] was 1 µM. Further, the kinetic solubility in data set [2] came out at 160 µM (≈ 70.2 µg/mL). In addition, the Activity entry in the data set on MRC5 is recorded as “Non-toxic”. The same compound showed an IC50 against Polyprotein P1234 of 1.26 µM.

Regarding `O=C(N1CCC2(CC1)CC(Nc1ccccc1)CCO2)C1(c2ccccc2)CCCC1` (stereo not given), in the data set on Chikungunya virus [1], the EC50 was 5.01 µM. The compound further showed a kinetic solubility in data set [2] of 20 µM (≈ 8.37 µg/mL). For the same compound, the Activity result with MRC5 is listed as “Non-toxic”. Also, the IC50 against Polyprotein P1234 is 15.8 µM.

On to `COc1ccc(C(=O)NCC2CCOC3(CCN(C(=O)C4(c5ccccc5)CCCC4)CC3)C2)cc1` (stereo not given), for which the EC50 with Chikungunya virus [1] is 3.98 µM. In addition, the kinetic solubility in data set [2] worked out at 35 µM (≈ 17.2 µg/mL). Further, in the data set with MRC5, the Activity result is “Non-toxic”. The IC50 at Polyprotein P1234 was 20 µM.

The compound `O=C1CCCN1CC1CCOC2(CCN(C(=O)C3(c4ccccc4)CCCC3)CC2)C1` (stereo not given) showed an inhibition with Chikungunya virus [3] of 90%. Also, in the data set on Chikungunya virus [1], the EC50 is 2.51 µM. Moreover, the kinetic solubility in data set [2] stood at 200 µM (≈ 84.9 µg/mL). In the data set with MRC5, the Activity entry is given as “Non-toxic”. The compound further had an IC50 at Polyprotein P1234 greater than 39.8 µM.

(Values after ChEMBL document CHEMBL6178023 (J Med Chem, 2025).)
